Like-named read-outs stand apart in the source and are kept apart here.
Key:
human PRMT8 = human PRMT8 (Homo sapiens, UniProt Q9NR22); assay: PRMT8 Biochemical Assay; conditions: PRMT8 IC50 (uM), peptide substrate, 3H-SAM Flashplate assay
[1] = test system: mono-methyl arginine in RKO cells; assay: RKO Methylation Assay, In Cell Western (ICW); assay type: cell-based; conditions: 72 hours
Text: RKO adherent cells were purchased from ATCC (American Type Culture Collection), Manassas, Va., USA. DMEM/Glutamax medium, penicillin-streptomycin, heat inactivated fetal bovine serum, 0.05% trypsin and D-PBS were purchased from Life Technologies, Grand Island, N.Y., USA. Odyssey blocking buffer, 800CW goat anti-rabbit IgG (H+L) antibody, and Licor Odyssey infrared scanner were purchased from Licor Biosciences, Lincoln, Nebr., USA. Mono-methyl arginine antibody was purchased from Cell Signaling Technology, Danvers, Mass., USA. Methanol was purchased from VWR, Franklin, Mass., USA. 10% Tween 20 was purchased from KPL, Inc., Gaithersburg, Md., USA. DRAQ5 was purchased from Biostatus Limited, Leicestershire, UK.
RKO adherent cells were maintained in growth medium (DMEM/Glutamax medium supplemented with 10% v/v heat inactivated fetal bovine serum and 100 units/mL penicillin-streptomycin) and cultured at 37° C. under 5% CO2.
Cell treatment, In Cell Western (ICW) for detection of mono-methyl arginine and DNA content.
Compound (100 nL) from a 96-well source plate was added directly to 384 well cell plate. Plates were incubated at 37° C., 5% CO2 for 72 hours. After three days of incubation, plates were brought to room temperature outside of the incubator for ten minutes and blotted on paper towels to remove cell media. 50 μL of ice cold 100% methanol was added directly to each well and incubated for 30 min at room temperature. After 30 min, plates were transferred to a Biotek EL406 plate washer and washed 2 times with 100 μL per well of wash buffer (1×PBS). Next 60 μL per well of Odyssey blocking buffer (Odyssey Buffer with 0.1% Tween 20 (v/v)) were added to each plate and incubated 1 hour at room temperature. Blocking buffer was removed and 20 μL per well of primary antibody was added (mono-methyl arginine diluted 1:200 in Odyssey buffer with 0.1% Tween 20 (v/v)) and plates were incubated overnight (16 hours) at 4° C. Plates were washed 5 times with 100 μL per well of wash buffer. […] The plates were washed 5 times with 100 μL per well wash buffer then 2 times with 100 μL per well of water. Plates were allowed to dry at room temperature then imaged on the Licor Odyssey machine which measures integrated intensity at 700 nm and 800 nm wavelengths. Both 700 and 800 channels were scanned.
First, the ratio for each well was determined by:
Each plate included fourteen control wells of DMSO only treatment (minimum activation) as well as fourteen control wells for maximum activation treated with 20 μM of a reference compound. The average of the ratio values for each control type was calculated and used to determine the percent activation for each test well in the plate. Reference compound was serially diluted three-fold in DMSO for a total of nine test concentrations, beginning at 20 μM. Percent activation was determined and EC30 curves were generated using triplicate wells per concentration of compound.

human PRMT6 = biological target: T1, human PRMT6 (Homo sapiens, UniProt Q96LA8); assay: PRMT6 Biochemical Assay
T1 construct: Flag-PRMT6-His; made in house; host or cells: HEK 293F cells (BacMam baculovirus, pFastBacMam)
Text: (§1) S-adenosylmethionine (SAM), S-adenosylhomocysteine (SAH), bicine, Tween20, dimethylsulfoxide (DMSO), bovine skin gelatin (BSG), sodium butyrate and Tris(2-carboxyethyl)phosphine hydrochloride solution (TCEP) were purchased from Sigma-Aldrich at the highest level of purity possible. ^3H-SAM was purchase from American Radiolabeled Chemicals with a specific activity of 80 Ci/mmol. 384-well streptavidin Flashplates were purchased from PerkinElmer.
Peptide representative of human histone H4 residues 36-50 was synthesized with an N-terminal linker-affinity tag motif and a C-terminal amide cap by 21st Century Biochemicals.
The amplified gene was subcloned into pFastBacMam (Viva Biotech).
Recombinant baculovirus were generated according to Bac-to-Bac kit instructions (Life Technologies). […] Infections were carried out at 37° C. for 48 hours, harvested by centrifugation, and stored at −80° C. for purification.
Column was washed with 20 mM imidazole in the same buffer and Flag-PRMT6-His was eluted with 150 mM imidazole. Pooled fractions were dialysed against buffer Ni-A and further purified by anti-flag M2 affinity chromatography. Flag-PRMT6-His was eluted with 200 ug/ml FLAG peptide in the same buffer. Pooled fractions were dialysed in 20 mM Tris, 150 mM NaCl, 10% glycerol and 5 mM β-mercaptoethanol, pH 7.8.
General Procedure for PRMT6 Enzyme Assays on Peptide Substrates.
(§2) The assays were all performed in a buffer consisting of 20 mM Bicine (pH=7.6), 1 mM TCEP, 0.005% BSG, and 0.002% Tween 20, prepared on the day of use. […] DMSO (1 ul) was added to Columns 11, 12, 23, 24, rows A-H for the maximum signal control and 1 ul of SAH, a known product and inhibitor of PRMT6, was added to columns 11, 12, 23, 24, rows I-P for the minimum signal control. A cocktail (40 ul) containing the PRMT6 enzyme was added by Multidrop Combi (Thermo-Fisher). The compounds were allowed to incubate with PRMT6 for 30 min at room temperature, then a cocktail (10 ul) containing SAM and peptide was added to initiate the reaction (final volume=51 ul). […] The assays were stopped by the addition of non-radiolabeled SAM (10 ul) to a final concentration of 400 uM, which dilutes the ^3H-SAM to a level where its incorporation into the peptide substrate is no longer detectable. 50 ul of the reaction in the 384-well polypropylene plate was then transferred to a 384-well Flashplate and the biotinylated peptides were allowed to bind to the streptavidin surface for at least 1 hour before being washed once with 0.1% Tween20 in a Biotek ELx405 plate washer. The plates were then read in a PerkinElmer TopCount plate reader to measure the quantity of ^3H-labeled peptide bound to the Flashplate surface, measured as disintegrations per minute (dpm) or alternatively, referred to as counts per minute (cpm).
(§3) Where dpm=disintegrations per minute, cmpd=signal in assay well, and min and max are the respective minimum and maximum signal controls.
(§4) Where top and bottom are the normally allowed to float, but may be fixed at 100 or 0 respectively in a 3-parameter fit. The Hill Coefficient normally allowed to float but may also be fixed at 1 in a 3-parameter fit. Y is the % inhibition and X is the compound concentration.

human PRMT1 = biological target: T2, human PRMT1 (Homo sapiens, UniProt Q99873); assay: PRMT1 Biochemical Assay; conditions: peptide substrate, 3H-SAM Flashplate assay; read-out: PRMT1 IC50
T2 construct: GST-tagged PRMT1; made in house; host or cells: High Five insect cells (baculovirus, pFastBac1)
Text: as §1, with “(BSG),” for “(BSG), sodium butyrate”
Recombinant baculovirus were generated according to Bac-to-Bac kit instructions (Life Technologies). […] Infections were carried out at 27° C. for 48 hours, harvested by centrifugation, and stored at −80° C. for purification.
GST-tagged PRMT1 was eluted with 50 mM Tris, 2 mM glutathione, pH 7.8, dialysed in buffer A and concentrated to 1 mg/mL.
General Procedure for PRMT1 Enzyme Assays on Peptide Substrates.
as §2, with “PRMT1,” for “PRMT6,”, “PRMT1” for “PRMT6”, “300” for “400”
as §3, §4

[2] = peptide substrate, 3H-SAM Flashplate assay, read-out: PRMT6 IC50

T1 sequence (Q96LA8 with tags, fused parts or gaps): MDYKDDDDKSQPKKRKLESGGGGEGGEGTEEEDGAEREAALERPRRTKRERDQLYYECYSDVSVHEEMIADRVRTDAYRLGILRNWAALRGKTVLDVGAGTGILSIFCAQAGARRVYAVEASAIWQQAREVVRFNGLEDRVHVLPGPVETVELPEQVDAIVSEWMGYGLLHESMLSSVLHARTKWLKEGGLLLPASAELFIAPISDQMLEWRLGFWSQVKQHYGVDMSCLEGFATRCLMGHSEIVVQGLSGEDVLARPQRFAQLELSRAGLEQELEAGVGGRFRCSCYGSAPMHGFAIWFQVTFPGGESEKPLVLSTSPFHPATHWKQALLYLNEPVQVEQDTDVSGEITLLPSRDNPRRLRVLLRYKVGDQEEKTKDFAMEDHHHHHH
T2 sequence (Q99873 with tags, fused parts or gaps): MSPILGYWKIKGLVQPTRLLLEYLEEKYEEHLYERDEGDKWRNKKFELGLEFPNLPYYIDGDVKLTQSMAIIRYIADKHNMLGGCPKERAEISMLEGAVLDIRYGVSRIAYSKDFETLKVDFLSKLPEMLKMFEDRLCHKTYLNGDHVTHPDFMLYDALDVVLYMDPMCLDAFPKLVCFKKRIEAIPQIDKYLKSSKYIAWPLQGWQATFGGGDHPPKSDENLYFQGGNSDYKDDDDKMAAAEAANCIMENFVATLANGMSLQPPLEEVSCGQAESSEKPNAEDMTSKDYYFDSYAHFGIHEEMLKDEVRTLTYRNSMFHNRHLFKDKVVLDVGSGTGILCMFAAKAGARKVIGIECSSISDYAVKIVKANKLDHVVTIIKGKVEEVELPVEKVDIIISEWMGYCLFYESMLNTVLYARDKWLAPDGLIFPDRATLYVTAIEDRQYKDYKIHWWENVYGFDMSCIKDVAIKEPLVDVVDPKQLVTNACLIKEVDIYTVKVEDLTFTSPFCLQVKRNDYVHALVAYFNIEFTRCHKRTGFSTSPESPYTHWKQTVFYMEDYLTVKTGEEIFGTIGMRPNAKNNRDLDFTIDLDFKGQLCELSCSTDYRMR
Sequence of human PRMT8 (Q9NR22 whole entry): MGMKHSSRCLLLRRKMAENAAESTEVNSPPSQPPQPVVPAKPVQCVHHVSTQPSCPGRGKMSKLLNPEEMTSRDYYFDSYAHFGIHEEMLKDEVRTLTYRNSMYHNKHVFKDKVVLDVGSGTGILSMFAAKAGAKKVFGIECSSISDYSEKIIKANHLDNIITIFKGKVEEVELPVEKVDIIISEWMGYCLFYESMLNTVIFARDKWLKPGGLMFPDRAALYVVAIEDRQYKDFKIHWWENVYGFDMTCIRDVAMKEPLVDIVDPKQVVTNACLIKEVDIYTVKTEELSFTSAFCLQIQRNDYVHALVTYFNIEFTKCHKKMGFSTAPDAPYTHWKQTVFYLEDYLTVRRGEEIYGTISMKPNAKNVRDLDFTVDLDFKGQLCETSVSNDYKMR

Row | Compound | IC50 (human PRMT8) [µM] | IC50 (human PRMT6; [2]) [µM] | IC50 (human PRMT1) [nM] | ICW EC30 [1] [nM] | IC50 (human PRMT6; PRMT6 IC50 (uM)) [µM]
1 | CNCCN(C)Cc1c[nH]nc1-c1ccc(CC(C)C)cc1 [Compound 37] | 0.0136 |  | 8.04 | 82 | 0.0169
2 | CNCCN(C)Cc1c[nH]nc1-c1ccc(N(C)CCOc2ccc(OC)cc2)cc1 [Compound 41] | 0.0334 | 0.00896 | 8.8 | 351.4 | 
3 | CNCCN(C)Cc1c[nH]nc1-c1ccc(OCCOc2ccc(C)cc2)cc1 [Compound 42] | 0.0514 | 0.00498 | 8.9 | 185 | 
4 | CNCCN(C)Cc1c[nH]nc1-c1cc(C)c(OCC2CC2)c(C(F)(F)F)c1 [Compound 43] | 0.015 |  | 8.97 | 475 | 0.0326
5 | CCN(CCOc1cccc(OC)c1)c1ccc(-c2n[nH]cc2CN(C)CCNC)cc1 [Compound 45] | 0.0367 | 0.0331 | 9.26 | 1140 | 
6 | CNCCN(C)Cc1c[nH]nc1-c1ccc(OCCOc2ccc(OCCN3CCOCC3)cc2)cc1 [Compound 46] | 0.026 | 0.00456 | 9.49 | 251.6 | 
7 | CNCCN(C)Cc1c[nH]nc1-c1ccc(OCCOc2cccc(N3CCOCC3)c2)cc1 [Compound 49] | 0.0337 | 0.00705 | 10.5 | 746.8 | 
8 | CNCCN(C)Cc1c[nH]nc1-c1cc(F)c(OC2CCOCC2)c(C(F)(F)F)c1 [Compound 53] | 0.0328 | 0.0189 | 11 | 479 | 
9 | CNCCN(C)Cc1ccnn1C1CCC2(CCOC2)CC1 (stereo not drawn) [Compound 54] | 0.0535 | 0.0329 | 11.2 | 680 | 
10 | CNCCN(C)Cc1c[nH]nc1-c1ccc(N(C)CCOc2cccc(OC)c2)cc1 [Compound 57] | 0.042 | 0.00902 | 11.8 | 757.7 | 
11 | CNCCN(C)Cc1c[nH]nc1-c1ccc(N2CC3CCCC3C2)nc1 (stereo not drawn) [Compound 58] | 0.0254 | 0.00835 | 11.9 | 416.5 | 
12 | CNCCN(C)Cc1ccnn1C1CCC2(CCOCC2)CC1 [Compound 59] | 0.042 | 0.0347 | 12.2 | 246.4 | 

More lines, in order of falling IC50 (human PRMT8), values ahead:

Row | IC50 (human PRMT8) [µM] | IC50 (human PRMT6; [2]) [µM] | IC50 (human PRMT1) [nM] | Compound | ICW EC30 [1] [nM] | IC50 (human PRMT6; PRMT6 IC50 (uM)) [µM]
13 | 0.0247 | 0.00739 | 8.34 | CNCCN(C)Cc1c[nH]nc1-c1ccc(OCCOc2ccc(OCC(C)C)cc2)cc1 [Compound 40] | 505.1 | 
14 | 0.0244 | 0.00635 | 7.64 | CNCCN(C)Cc1c[nH]nc1-c1ccc(OCCOc2ccc(N3CCOCC3)cc2)cc1 [Compound 36] | 127.1 | 
15 | 0.0237 | 0.0427 | 10.4 | CC(C)Cc1ccc(-c2n[nH]cc2CN(C)CCN)cc1C(F)(F)F [Compound 48] | 3673 | 
16 | 0.0235 | 0.0565 | 9.25 | CNCCN(C)Cc1ccnn1-c1ccc(COC)cc1 [Compound 44] | 130 | 
17 | 0.0233 | 0.00562 | 7.37 | CNCCN(C)Cc1c[nH]nc1-c1ccc(OCCOc2ccc(OC(C)C)cc2)cc1 [Compound 33] | 232 | 
18 | 0.0219 | 0.005 | 7.59 | CNCCN(C)Cc1c[nH]nc1-c1ccc(OCCOc2ccc(OCCC(O)CO)cc2)cc1 (stereo not drawn) [Compound 35] | 422.7 | 
19 | 0.0168 | 0.0435 | 11.5 | CNCCN(C)Cc1c[nH]nc1-c1cc(Cl)c(OCC(C)C)c(C(F)(F)F)c1 [Compound 56] | 765 | 
20 | 0.0135 | 0.0267 | 7.37 | CNCCN(C)Cc1c[nH]nc1[C@H]1CC[C@@H](OCCOc2ccc(OCCOC)cc2)CC1 [Compound 34] | 80.13 | 
21 | 0.0122 | 0.0295 | 8.31 | C=C(C)COc1c(Cl)cc(-c2n[nH]cc2CN(C)CCNC)cc1C(F)(F)F [Compound 39] | 439 | 
